Laboratory results reported in US12011423B2, “S-alkylisothiouronium derivatives for treating uterine hypercontractility disorders” (FORAVISET LTD., priority 2007, dated 2024).

Columns and labels:
[1] = tested on: women showing abnormal uterine bleeding; experiment: Effect of vaginal suppositories on abnormal uterine bleeding in women (Example 1); assay type: in vivo
Protocol: Thirty-six women showing abnormal uterine bleeding were enrolled to this study. Each woman received one suppository of S-ethylisothiouronium diethylphosphate (100 mg of S-ethylisothiouronium diethylphosphate in 2 gr of Suppocire®, a suppository base obtained by esterification of hydrogenated palm oil and hydrogenated palm kelnel oil) per day, applied in the posterior vaginal fornix.

[2] = tested on: Wistar male rats; experiment: Tail-flick test, pain under thermal stimulation (Example 2); assay type: in vivo
Protocol: The study was carried out on Wistar male rats (body weight of 210 g). The experiment was carried out on 30 rats divided into 3 groups of 10 animals each. The presence of pain was determined using the Tail-flick test, This method is based on monitoring the reaction time for the typical tail-withdrawal reflex as a result of thermal stimulation. First, the temperature (° C.) at which rat tails was withdrawn was determined, thus identifying the thermal level that caused pain. One hour later, the rats were injected intraperitoneally with S-ethylisothiouronium diethylphosphate in 0.9% NaCl. One group (10 rats) was injected with 5 mg/kg body weigh of S-ethylisothiouronium diethylphosphate, whilst the second and third groups (10 rats each) were injected with 10 and 20 mg/kg body weight, respectively.

[3] = tested on: women suffering from primary or secondary dysmenorrhea; experiment: Effect of vaginal suppositories on pain in primary or secondary dysmenorrhea (Example 3); assay type: in vivo
Protocol: Vaginal suppositories containing S-ethylisothiouronium diethylphosphate (100 mg each/day) were applied to 28 women suffering from primary or secondary dysmenorrhea.

[4] = tested on: women patients having primary dysmenorrhea; experiment: Effect on pelvic pains in women having primary dysmenorrhea (Example 4, group II); assay type: in vivo; settings: intravaginal administration
Protocol: Sixty-ninewomen having symptomatic uterine myoma or primary dysmenorrhea were enrolled to this study. The women were treated with vaginal suppositories of S-ethylisothiouronium diethylphosphate (100 mg of S-ethylisothiouronium diethylphosphate in 2 gr of Suppocire® per day, applied in the posterior vaginal fornix).
In addition, the effect of S-ethylisothiouronium diethylphosphate on pelvic pains was evaluated in 38 women patients having primary dysmenorrhea (group II). The average age of the patients was 24.8±4.1 years. All the 38 patients had experienced at least 6 painful menstrual cycles prior to their inclusion in the study. The duration of the menstrual cycle in all cases was normal, i.e., of 21-35 days, with the menstruation lasting 3-7 days. Further, none of the patients was treated with oral contraceptives for at least 6 months before enrollment. The patients were eligible for the study following the confirmation of normal hematological and biochemical indexes and exclusion of antecedent gynecological surgical procedures.
To evaluate the intensity of pain, the patients reported the pain intensity at the beginning of the study, during, and at the termination of the medical management using one of the following terms: absence of pain; greatly diminished pain; slightly diminished pain; similar pain as of the previous treatment; and intensification of pain. […]

[5] = tested on: women with uterine myoma; experiment: S-ethylisothiouronium bromide in abnormal uterine hemorrhages and pelvic pains associated with uterine myoma (unpublished studies) and comparison; assay type: in vivo; settings: found to be preferable over S-ethylisothiouronium bromide
[6] = tested on: women with uterine myoma; settings: unpublished studies; cited from earlier work
[7] = 24 hours after beginning of treatment, 100 mg/day vaginal suppository, 28 women

Row | Compound | complete disappearance of pathological uterine bleeding ([1]; after six suppositories (100 mg each), intravaginally, one per day, 36 women) | patients reporting menstrual cycles with a normal duration and interval ([1]; over the course of three consecutive months) | intensity of bleeding moderately reduced, full haemostatic effect not reached ([1]; patients, vaginal suppositories 100 mg per day) | Haemostasis obtained, on average, time from the start of treatment ([1]; vaginal suppositories 100 mg per day) | increase of thermal level for tail withdrawal ([2]; 5 mg/kg intraperitoneal) | thermal level for tail withdrawal after injection ([2]; 5 mg/kg intraperitoneal, before injection 73+1.26° C.) | increase of pain reception level under thermal stimulation ([2]; 10 mg/kg body weight intraperitoneal) | pain reception level under thermal stimulation after injection ([2]; 10 mg/kg body weight intraperitoneal, before injection 73+3.63° C.) | increase of pain reception level ([2]; 20 mg/kg body weight intraperitoneal) | pain reception level after injection ([2]; 20 mg/kg body weight intraperitoneal, before injection 73.5±2.07) | analgesic activity (conclusion in words) ([2]; tail-flick test, 5-20 mg/kg intraperitoneal) | complete disappearance of the pain [3, 7] | significant decrease in the intensity of the pain [3, 7] | eradication of pain ([3]; 48 hours after beginning of treatment, after a second suppository) | treated women in whom uterine cramps were abrogated [4] | comparison with S-ethylisothiouronium bromide [5] | duration of effect and side effects [6] | effect on abnormal uterine hemorrhages and pelvic pains [6]
1 | S-ethylisothiouronium diethylphosphate | 87.8 % of cases | 94.4% | 12.2% | 40 to 58 h | about 21% | 89.01+5.11 °C | about 31% | 96.4+3.98 °C | 59% | 16.8±9.51 °C | potent analgesic agent | 39.3% | 60.7 % of the cases | fully eradicated in all treated women | about 95% | longer bioactivity, higher efficacy, and little or no side-effects |  | 
2 | Br.CCSC(=N)N [S-ethylisothiouronium bromide] |  |  |  |  |  |  |  |  |  |  |  |  |  |  |  |  | short-duration effect accompanied with side effects such as digestive disturbances and complications | effective in reducing the abnormal uterine hemorrhages and pelvic pains
